Reference: PMC9266914, “Broad Spectrum Functional Activity of Structurally Related Monoanionic Au(III) Bis(Dithiolene) Complexes” (International Journal of Molecular Sciences, 2022)
Where two headings read alike, the source gives them in different places.

How the values were obtained:
[1] = test system: A2780 ovarian cancer cells; assay: MTT cytotoxicity assay in A2780 (cisplatin sensitive) ovarian cancer cells; type: cell-based, human; conditions: 24 h incubation, read-out: IC50 A2780, 24 h
Experimental: (§1) Cells were exposed to increasing concentrations of the complexes (0.01–100 μM) for 24 and/or 48 h, at 37 °C. The IC50 values were calculated from dose–response curves using the colorimetric MTT assay. […] Most complexes presented a similar cytotoxicity profile compared to Auranofin, but higher activity compared to Cisplatin, and, most importantly, were active in the Cisplatin-resistant OVCAR8 cells (Table 2).
(§2) The cytotoxic activity of the complexes was evaluated in the A2780 (cisplatin sensitive) (Sigma-Aldrich) and OVCAR8 (cisplatin resistant) (ATCC) ovarian cancer cells. Cells were grown in RPMI-1640 medium (Gibco, Thermo Fisher) supplemented with 10% fetal bovine serum (FBS) and were maintained at 37 °C in a humidified atmosphere with 5% CO2. The complexes were initially dissolved in DMSO and then in culture medium to prepare serial dilutions in the range 10^−9–10^−4 M. After 24 and/or 48 h incubation the cellular viability was measured by the colorimetric MTT assay, as previously described.

[2] = test system: OVCAR8 ovarian cancer cells; assay: MTT cytotoxicity assay in OVCAR8 (cisplatin resistant) ovarian cancer cells; type: cell-based, human; conditions: 48 h incubation
Experimental: as §1, §2

ΦX174 supercoiled DNA = assay: Electrophoretic mobility of supercoiled DNA; type: binding; conditions: 24 h, 37 °C, in words
Experimental: The potential interaction of the complexes with DNA was evaluated through the assessment of the electrophoretic mobility of supercoiled ϕX174 DNA, using a previously described method. To that end, a mixture was prepared containing 200 ng of supercoiled ϕX174 DNA (Promega) in 10 mM of phosphate buffer (pH 7.2) and increasing concentrations of Cisplatin, as a positive control, or the metal complexes (in a total volume of 20 μL). The mixture was incubated for 24 h at 37 °C, in the dark. As controls, samples having non-incubated plasmid and plasmid incubated with DMSO were also prepared. Then, all samples were prepared for electrophoresis through the addition of 2 μL of 10× DNA loading buffer (Applichem) and loading on an 0.8% agarose gel in TBE buffer (Thermo Fisher Scientific, Waltham, MA, USA). The gel was run at 90 V for approximately 3 h, stained using a 3× GelRed® (Biotium) solution in H2O, and the bands visualized using an AlphaImagerEP (Alpha Innotech) under UV light.

[3] = test system: A2780 ovarian cancer cells; design: method as in PMID 32391537; conditions: MTT, starred values, cited from earlier work
[4] = target: human serum albumin (HSA) (Homo sapiens, UniProt P02768); design: method as in PMID 26469679, PMID 22835721, PMID 32283915, doi:10.1016/j.jlumin.2011.06.005; conditions: cited from earlier work
S. aureus Newman = test system: S. aureus Newman; design: method as in PMID 32391537; conditions: complexes starred as Complex 1 / Complex 2; cited from earlier work
E. coli ATCC25922 = test system: E. coli ATCC25922; design: method as in PMID 32391537; conditions: complexes starred as Complex 1 / Complex 2; cited from earlier work
C. albicans SC5134 = test system: C. albicans SC5134; design: method as in PMID 32391537; conditions: complexes starred as Complex 1 / Complex 2; cited from earlier work
C. glabrata CBS138 = test system: C. glabrata CBS138; design: method as in PMID 32391537; conditions: complexes starred as Complex 1 / Complex 2; cited from earlier work
[5] = 48 h incubation, read-out: IC50 A2780, 48 h

human serum albumin (HSA), sequence (P02768 25-609): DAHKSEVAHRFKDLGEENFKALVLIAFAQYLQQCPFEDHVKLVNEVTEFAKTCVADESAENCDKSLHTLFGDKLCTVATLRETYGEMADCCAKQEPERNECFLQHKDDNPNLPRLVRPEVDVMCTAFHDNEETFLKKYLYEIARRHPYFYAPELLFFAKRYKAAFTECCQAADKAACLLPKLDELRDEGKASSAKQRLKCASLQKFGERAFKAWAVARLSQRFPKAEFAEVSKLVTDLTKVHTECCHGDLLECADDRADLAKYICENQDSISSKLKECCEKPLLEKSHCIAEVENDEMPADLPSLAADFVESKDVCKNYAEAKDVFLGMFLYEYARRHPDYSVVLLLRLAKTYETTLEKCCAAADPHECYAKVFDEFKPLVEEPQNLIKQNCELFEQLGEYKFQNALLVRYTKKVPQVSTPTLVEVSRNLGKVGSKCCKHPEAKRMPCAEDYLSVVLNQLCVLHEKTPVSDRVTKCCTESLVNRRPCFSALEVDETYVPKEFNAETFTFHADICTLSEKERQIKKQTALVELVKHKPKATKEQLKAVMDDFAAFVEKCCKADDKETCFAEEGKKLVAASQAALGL

For N.N.[Cl][Pt][Cl] [Cisplatin, reference compound], the IC50 [1] was 21.1 ± 5 µM, the IC50 [2] was 10.1 ± 2.3 µM and the “conformational changes / electrophoretic mobility of DNA” value (ΦX174 supercoiled DNA) was “able to alter the electrophoretic mobility of the nicked and supercoiled forms of DNA in a dose-dependent way”. The IC50 [3, 5] was 3.6 ± 1.25 µM and the “binding constant to HSA” value [4] was 10^2 M^−1.

For CC[N+](CC)(CC)CC.CCn1c2c(sc1=S)[S][Au-]1([S]c3sc(=S)n(CC)c3[S]1)[S]2 [[N][AuSEt(=S)]], the IC50 [2] is listed as 3.76 ± 0.71 µM, the IC50 ([3]; 24 h incubation, read-out: IC50 A2780, 24 h) is listed as 4.23 ± 0.8 µM and the IC50 [3, 5] is listed as 1.3 ± 0.32 µM. For the same molecule, the “MIC S. aureus Newman” value (S. aureus Newman) was 12.1 ± 3.9 µg/mL, the “MIC E. coli ATCC25922” value (E. coli ATCC25922) was >125 µg/mL and the “MIC C. albicans SC5134” value (C. albicans SC5134) was 19.9 ± 2.4 µg/mL. The “MIC C. glabrata CBS138” value (C. glabrata CBS138) was 9.7 ± 2.7 µg/mL.
